Holding throughout (format): in vivo, human
Experiment [1] deals with umami-taste. Description: Sensory panel tasting of 0.3% NaCl solution. Conditions: Solution B: 0.3% NaCl and 10 ppm geranyl lactamide; trained sensory panel of 20 women; Solution A (0.3% NaCl only): salty. How it is done: Two solutions were prepared: A a solution of 0.3% NaCl B a solution of 0.3% NaCl and 10 ppm geranyl lactamide The samples were tasted by a trained sensory panel composed of 20 women aged between 30 and 60.

Experiment [2] has as its system umami-taste. The experiment in a line: Sensory panel tasting of 0.3% NaCl and 0.03% MSG solution. Conditions: Solution B: 0.3% NaCl, 0.03% MSG and 10 ppm geranyl lactamide, trained sensory panel of 20 women, Solution A without compound: salty. As to the method:
Two solutions were prepared: A a solution of 0.3% NaCl and 0.03% MSG B a solution of 0.3% NaCl, 0.03% MSG and 10 ppm geranyl lactamide The samples were tasted by a trained sensory panel composed of 20 women aged between 30 and 60.

The subject of experiment [3] is umami-taste. Description: Flavourist tasting of tomato soup. Conditions: tomato soup containing 15 ppm geranyl lactamide; flavourists (2 male, 2 female). As to the method: A tomato soup mix was prepared from 9.4 g of sodium chloride, 1 g of mono sodium glutamate, 0.08 g ribonucleotides (ex yeast), 32 g of tomato powder (ex […]), 25.1 g of glucose, 21 g of starch (Ultrasperse 5 ex National Starch), 5 g of palm fat powder, 3 g of yeast powder, 1 g of onion powder, 0.15 g of carrot powder, 0.05 g of ground white pepper, 0.3 g of celery extract powder, 0.05 g of ground laurel leaf powder, and 1.85 g of sucrose. 25 G of the well mixed ingredients was added to 250 g of boiling water and stirred until completely dissolved. The reference soup was compared with a batch of the same soup containing 15 ppm of geranyl lactamide.

Experiment [4] has as its system umami-taste. Description: Sensory panel tasting of flavoured potato chips. To be noted: for taste description of potato chips: trained sensory panel of 20 women. How it is done:
Plain potato chips were prepared. One part was flavoured with 1.2% sodium chloride (sample A) One part was flavoured with 1.2% sodium chloride and 0.3% mono sodium glutamate (sample b) One part was flavoured with 1.2% sodium chloride and 25 ppm geranyl lactamide (sample C). The samples were tasted by a trained sensory panel composed of 20 women aged between 30 and 60.

The subject of experiment [5] is umami-taste. Description: Flavourist tasting of tomato ketchup. To be noted: tomato ketchup with 20 ppm geranyl lactamide; flavourists (2 male, 2 female). As to the method:
A tomato ketchup was prepared from 19% tomato paste (28-30% dry weight), 8% of vinegar (15%), 3% of sodium chloride, 20% of sugar and 50% of water. To one half of the batch was added 20 ppm of geranyl lactamide.

The structures appear in SMILES notation.

Two molecules from patent publication US8815321B2, “Geranylamine derivatives as flavouring agents” (Givaudan S.A., priority 2009, dated 2014) can be followed below.

In the case of `CC(C)=CCC/C(C)=C/CNC(=O)C(C)O` (stereo not shown) [geranyl lactamide], the “taste description (findings of the panel)” value in the experiment on umami-taste [1] is listed as “salty, umami”; with umami-taste [2] it was “salty, umami, more bouillon-like, more complex, less sweet”. Moreover, the “taste of test soup compared with reference soup” value in the experiment with umami-taste [3] was “more umami, had a long-lasting savoury aspect, was more salty and was more complex than the base soup”. Moreover, the “panel preference among potato chip samples” value in the experiment on umami-taste [4] (sample C (1.2% sodium chloride and 25 ppm geranyl lactamide) vs sample A (NaCl) and sample B (NaCl and 0.3% MSG)) was “preferred over the other two samples”. Besides, the “taste description of potato chips” value in the experiment on umami-taste [4] (sample C: 1.2% sodium chloride and 25 ppm geranyl lactamide) is “salty, umami, long lasting, savoury, bouillon”. Also, the “taste of test ketchup compared with base ketchup” value with umami-taste [5] is “clearly more umami, more salty and had a pleasant savoury note”.

Consider `N[C@@H](CCC(=O)O)C(=O)[O-].[Na+]` [mono sodium glutamate, reference compound], for which, in the experiment with umami-taste [4] (sample B: 1.2% sodium chloride and 0.3% mono sodium glutamate), the “taste description of potato chips” value was “salty and umami”.
